Test results published in ChEMBL document CHEMBL2169870, “A novel aminopeptidase N inhibitor developed by virtual screening approach” (Bioorg Med Chem Lett, 2012).
The source made the active and inactive calls. The calls are words filed in the database; no cut-off is given here.

How the values were obtained:
Aminopeptidase N = target: T1, Aminopeptidase N (Sus scrofa, UniProt P15145); assay: Inhibition of porcine kidney microsome aminopeptidase using L-Leu-p-nitroanilide as substrate after 30 mins
T1 sequence (P15145 whole entry): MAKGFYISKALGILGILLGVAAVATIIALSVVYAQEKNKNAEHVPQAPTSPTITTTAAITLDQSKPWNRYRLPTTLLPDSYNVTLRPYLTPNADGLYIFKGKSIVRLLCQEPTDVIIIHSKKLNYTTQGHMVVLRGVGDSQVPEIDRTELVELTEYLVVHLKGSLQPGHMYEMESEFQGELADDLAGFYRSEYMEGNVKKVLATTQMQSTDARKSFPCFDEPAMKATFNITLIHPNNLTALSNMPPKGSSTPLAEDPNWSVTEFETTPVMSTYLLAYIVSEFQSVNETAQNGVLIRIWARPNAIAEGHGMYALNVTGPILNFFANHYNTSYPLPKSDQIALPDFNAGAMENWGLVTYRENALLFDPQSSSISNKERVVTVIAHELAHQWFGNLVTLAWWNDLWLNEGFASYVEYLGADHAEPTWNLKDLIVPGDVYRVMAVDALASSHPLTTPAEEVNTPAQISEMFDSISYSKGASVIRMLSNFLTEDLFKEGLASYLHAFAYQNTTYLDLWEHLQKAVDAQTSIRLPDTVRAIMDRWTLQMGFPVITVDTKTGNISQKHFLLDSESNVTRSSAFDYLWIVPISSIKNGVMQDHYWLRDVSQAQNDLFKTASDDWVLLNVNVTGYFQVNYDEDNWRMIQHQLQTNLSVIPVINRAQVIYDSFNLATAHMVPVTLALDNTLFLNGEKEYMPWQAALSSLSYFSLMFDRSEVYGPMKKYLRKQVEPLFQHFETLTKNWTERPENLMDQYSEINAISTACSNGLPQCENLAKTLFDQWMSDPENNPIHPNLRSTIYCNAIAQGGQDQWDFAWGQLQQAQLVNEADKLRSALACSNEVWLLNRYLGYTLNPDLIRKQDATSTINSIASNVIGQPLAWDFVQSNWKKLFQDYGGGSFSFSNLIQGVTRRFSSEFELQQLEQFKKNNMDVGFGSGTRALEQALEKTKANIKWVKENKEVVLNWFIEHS

MCF7 [1] = assay: Cytotoxicity against human MCF7 cells after 48 hrs by MTT assay
HL-60 [2] = assay: Cytotoxicity against human HL60 cells after 48 hrs by MTT assay
MDA-MB-231 [3] = assay: Induction of apoptosis in human MDA-MB-231 cells assessed as early apoptotic cells at 20 uM after 24 hrs using annexin-V-FITC staining by flow cytometry (reference value: 1.69%); format: functional
MDA-MB-231 [4] = assay: Cell cycle arrest in human MDA-MB-231 cells assessed as accumulation at G2 phase at 20 uM after 48 hrs using propidium iodide staining by flow cytometry (reference value: 18.35%); format: functional
MDA-MB-231 [5] = assay: Induction of apoptosis in human MDA-MB-231 cells assessed as late apoptotic cells at 20 uM after 24 hrs using annexin-V-FITC staining by flow cytometry (reference value: 1.69%); format: functional
MDA-MB-231 [6] = assay: Antimetastatic activity in human MDA-MB-231 cells assessed as inhibition of cell invasion at 20 uM after 20 hrs by matrigel assay; format: functional, cell-based
MDA-MB-231 [7] = assay: Cell cycle arrest in human MDA-MB-231 cells assessed as accumulation at S phase at 20 uM after 48 hrs using propidium iodide staining by flow cytometry (reference value: 33.25%); format: functional
MDA-MB-231 [8] = assay: Cell cycle arrest in human MDA-MB-231 cells assessed as accumulation at G1 phase at 20 uM after 48 hrs using propidium iodide staining by flow cytometry (reference value: 48.40%); format: functional
ES2 = assay: Cytotoxicity against human ES2 cells after 48 hrs by MTT assay
NB-4 [9] = assay: Cytotoxicity against human NB4 cells after 48 hrs by MTT assay
NIH3T3 = assay: Cytotoxicity against mouse NIH/3T3 cells after 48 hrs by MTT assay; format: cell-based
HeLa [10] = assay: Cytotoxicity against human HeLa cells after 48 hrs by MTT assay
SK-OV-3 [11] = assay: Cytotoxicity against human SKOV3 cells after 48 hrs by MTT assay
HL-60 [12] = assay: Cytotoxicity against human HL60 cells after 48 hrs by MTT assay; details: HL-60, 48 h
MDA-MB-231 [13] = assay: Antimetastatic activity in human MDA-MB-231 cells assessed as inhibition of cell invasion at 300 uM after 20 hrs by matrigel assay; format: functional, cell-based
SK-OV-3 [14] = assay: Cytotoxicity against human SKOV3 cells after 48 hrs by MTT assay; details: SK-OV-3, 48 h
PC-3 = assay: Cytotoxicity against human PC3 cells after 48 hrs by MTT assay; details: PC-3, 48 h
MDA-MB-231 [15] = assay: Cell cycle arrest in human MDA-MB-231 cells assessed as accumulation at G1 phase at 300 uM after 48 hrs using propidium iodide staining by flow cytometry (reference value: 48.40%); format: functional
MDA-MB-231 [16] = assay: Induction of apoptosis in human MDA-MB-231 cells assessed as early apoptotic cells at 300 uM after 24 hrs using annexin-V-FITC staining by flow cytometry (reference value: 1.69%); format: functional
A549 = assay: Cytotoxicity against human A549 cells after 48 hrs by MTT assay; details: A549, 48 h
MCF7 [17] = assay: Cytotoxicity against human MCF7 cells after 48 hrs by MTT assay; details: MCF7, 48 h
HCT-116 = assay: Cytotoxicity against human HCT116 cells after 48 hrs by MTT assay; details: HCT-116, 48 h
MDA-MB-231 [18] = assay: Cell cycle arrest in human MDA-MB-231 cells assessed as accumulation at S phase at 300 uM after 48 hrs using propidium iodide staining by flow cytometry (reference value: 33.25%); format: functional
MDA-MB-231 [19] = assay: Induction of apoptosis in human MDA-MB-231 cells assessed as late apoptotic cells at 300 uM after 24 hrs using annexin-V-FITC staining by flow cytometry (reference value: 1.69%); format: functional
MDA-MB-231 [20] = assay: Cytotoxicity against human MDA-MB-231 cells after 48 hrs by MTT assay; details: MDA-MB-231, 48 h
HeLa [21] = assay: Cytotoxicity against human HeLa cells after 48 hrs by MTT assay
[22] = Cytotoxicity against human ES2 cells after 48 hrs by MTT assay; details: ES-2, 48 h
NB-4 [23] = assay: Cytotoxicity against human NB4 cells after 48 hrs by MTT assay; details: NB-4, 48 h
K562 = assay: Cytotoxicity against human K562 cells after 48 hrs by MTT assay; details: K562, 48 h
MDA-MB-231 [24] = assay: Cell cycle arrest in human MDA-MB-231 cells assessed as accumulation at G2 phase at 300 uM after 48 hrs using propidium iodide staining by flow cytometry (reference value: 18.35%); format: functional

Compound `COc1cc(/C=C2/C(=O)NC(=O)N(Cc3ccc(F)cc3)C2=O)cc(OC)c1O` has an IC50 (Aminopeptidase N) of 78.9 µM.

Compound `C=CCN/C(S)=N/C=C1C(=O)NC(=O)NC1=O` has an IC50 (Aminopeptidase N) of 65.9 µM.

Work on `O=C(O)COc1ccc(/C=N/n2c(COc3ccccc3)nc3ccccc3c2=O)cc1` yielded an IC50 (Aminopeptidase N) of 188 µM.

With `CCOC(=O)/C(N)=N/NS(=O)(=O)c1ccc(C)cc1` the IC50 (Aminopeptidase N) was 321 µM.

With `CC[C@H](N)[C@H](O)c1ccc(OC)cc1` the IC50 (Aminopeptidase N) was over 1000 µM.

Compound `NS(=O)(=O)c1ccc(-n2cccc2/C=C2/C(=O)NN(c3ccc(Cl)cc3)C2=O)cc1` has an IC50 (Aminopeptidase N) of over 1000 µM.

In the case of `NNC(=O)/C(=C/c1ccc([N+](=O)[O-])cc1)NC(=O)c1ccc(Br)cc1`, the IC50 (Aminopeptidase N) is reported as 438 µM.

Compound `O=C1NC(=O)C(=NNc2cc([N+](=O)[O-])ccc2O)C(=O)N1` has an IC50 (Aminopeptidase N) of over 1000 µM.

`NC(=O)c1ccccc1NC(=O)c1ccccc1C(=O)O` showed an IC50 (Aminopeptidase N) of 66.3 µM.

With `Nn1c(COc2ccccc2)n[nH]c1=S` the IC50 (Aminopeptidase N) was 424 µM.

Work on `Nc1nc2c(ncn2S(=O)(=O)c2cccc(C(=O)O)c2)c(=O)[nH]1` yielded an IC50 (Aminopeptidase N) of 202 µM.

`O=C1NC(=O)C(=NNc2cccc(C(=O)O)c2)C(=O)N1` gave an IC50 (Aminopeptidase N) of over 1000 µM.

In the case of `NC(=S)NNC(=O)c1ccccc1C(=O)O`, the IC50 (Aminopeptidase N) is reported as over 1000 µM.

For `CC(=O)NC(=S)NNC(=O)COc1ccc(Br)cc1`, the IC50 (Aminopeptidase N) was 227 µM.

For `Cc1cc(/C=N/Nc2ccc([N+](=O)[O-])cc2[N+](=O)[O-])c(C)n1-c1ccc(S(N)(=O)=O)cc1`, the IC50 (Aminopeptidase N) was over 1000 µM.

With `O=C1Nc2ccccc2/C1=C1/SC(=S)N(NC(=O)c2cccc(O)c2)C1=O` the IC50 (Aminopeptidase N) was 170 µM.

For `Cc1[nH]cnc1/C=N/NC(N)=S`, the IC50 (Aminopeptidase N) was over 1000 µM.

In the case of `O=C(CN1C(=O)C2(OCCO2)c2cc(Br)ccc21)NO`, the Activity (MCF7 [1]) is reported as “Dose-dependent effect”, the Activity (HL-60 [2]) is reported as “Dose-dependent effect” and the Activity (MDA-MB-231 [3]) is reported as 4.99%. The Activity (MDA-MB-231 [4]) was 3.83%, the Activity (MDA-MB-231 [5]) was 5.35% and the Activity (MDA-MB-231 [6]) was “Active”. The Activity (MDA-MB-231 [7]) was 2.9%, the Activity (MDA-MB-231 [8]) was 93.27% and the Activity (ES2) was “Dose-dependent effect”. The Activity (NB-4 [9]) was “Dose-dependent effect”, the Activity (NIH3T3; mouse, nih3t3, 48 h) was “Dose-dependent effect” and the Activity (HeLa [10]) was “Dose-dependent effect”. For the same compound, the Activity (SK-OV-3 [11]) was “Dose-dependent effect”.

With `CC(C)C[C@H](NC(=O)[C@@H](O)[C@H](N)Cc1ccccc1)C(=O)O` [UBENIMEX] the IC50 (HL-60 [12]) was 86.4 µM, the Activity (MDA-MB-231 [13]) was “Active” and the IC50 (SK-OV-3 [14]) was over 1000 µM. It also gave an IC50 (PC-3) of 399 µM, an Activity (MDA-MB-231 [15]) of 77.91% and an Activity (MDA-MB-231 [16]) of 8.54%. For the same compound, the IC50 (A549) was 513 µM, the IC50 (MCF7 [17]) was over 1000 µM and the IC50 (HCT-116) was over 1000 µM. For the same compound, the Activity (MDA-MB-231 [18]) was 15.06%, the Activity (MDA-MB-231 [19]) was 2.14% and the IC50 (MDA-MB-231 [20]) was 50.6 µM. It also gave an IC50 (HeLa [21]) of 155 µM, an IC50 [22] of 74.5 µM and an IC50 (NIH3T3; Mus musculus, NIH3T3, 48 h) of over 1000 µM. The IC50 (NB-4 [23]) was 221 µM, the IC50 (K562) was 136 µM and the Activity (MDA-MB-231 [24]) was 7.03%.
